# Data as given in PubChem BioAssay (NCI).
#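 Five compound concentrations were applied to cells in 96-well plates for 48 hours; endpoints were derived by simple linear interpolation of the resulting dose-response curve. GI50 marks 50% less growth. TGI is the concentration that stops growth completely.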
# Tests used:
# Assay in all cases: NCI anticancer screen, dose series, 48 h
# [1] = test system: HOP-92 NSCLC
# [2] = test system: TK-10 renal
# [3] = test system: UACC-62 melanoma
# [4] = test system: ACHN renal
# [5] = test system: HT29 colon
# [6] = test system: MOLT-4 leukemia
# [7] = test system: HCT-15 colon
# [8] = test system: MCF7 breast
# [9] = test system: SF-539 CNS
# [10] = test system: SN12C renal
# [11] = test system: BT-549 breast
# [12] = test system: HCC-2998 colon
# [13] = test system: HOP-62 NSCLC
# [14] = test system: SK-MEL-28 melanoma
# [15] = test system: NCI-H23 lung
# [16] = test system: RXF 393 renal
# [17] = test system: OVCAR-4 ovarian
# [18] = test system: HCT-116 colon
# [19] = test system: HS 578T breast
# [20] = test system: PC-3 prostate
# [21] = test system: NCI-H460 lung
# [22] = test system: LOX IMVI melanoma
# [23] = test system: NCI-H522 lung
# [24] = test system: SF-268 CNS
# [25] = test system: SNB-19 CNS
# [26] = test system: CAKI-1 renal
# [27] = test system: MALME-3M melanoma
# [28] = test system: MDA-MB-231 breast
# [29] = test system: RPMI-8226 leukemia
# [30] = test system: EKVX NSCLC
# [31] = test system: SNB-75 CNS
# [32] = test system: M14 melanoma
# [33] = test system: SK-MEL-5 melanoma
# [34] = test system: COLO 205 colon
# [35] = test system: OVCAR-8 ovarian
# [36] = test system: NCI/ADR-RES ovarian
# [37] = test system: A498 renal
# [38] = test system: SK-OV-3 ovarian
# [39] = test system: OVCAR-5 ovarian
# [40] = test system: IGROV1 ovarian
# [41] = test system: HL-60(TB) leukemia
# [42] = test system: U251 CNS
# [43] = test system: SW-620 colon
# [44] = test system: OVCAR-3 ovarian
# [45] = test system: T-47D breast
# [46] = test system: MDA-MB-435
# [47] = test system: K-562 leukemia
# [48] = test system: MDA-MB-468 breast
# [49] = test system: 786-0 renal
# [50] = test system: NCI-H226 lung
# [51] = test system: SK-MEL-2 melanoma
# [52] = test system: SR leukemia
# [53] = test system: A549 NSCLC
# [54] = test system: KM12 colon
# [55] = test system: DU-145 prostate
# [56] = test system: UO-31 renal
# [57] = test system: UACC-257 melanoma
# [58] = test system: CCRF-CEM leukemia
# [59] = test system: SF-295 CNS
structure (smiles),measurement,setting,value
Cc1cc2nc3c4ccccc4n(CCCN(C)C)c3nc2cc1C,GI50,[1],1.89 µM
same,TGI,[1],9.4 µM
same,GI50,[2],2.58 µM
same,TGI,[2],8.64 µM
same,GI50,[3],1.89 µM
same,TGI,[3],4.97 µM
same,GI50,[4],1.73 µM
same,TGI,[4],4.91 µM
same,GI50,[5],1.45 µM
same,TGI,[5],4.53 µM
same,GI50,[6],1.94 µM
same,TGI,[6],6.41 µM
same,GI50,[7],1.8 µM
same,TGI,[7],3.56 µM
same,GI50,[8],1.95 µM
same,TGI,[8],4.88 µM
same,GI50,[9],2.16 µM
same,TGI,[9],5.51 µM
same,GI50,[10],2.33 µM
same,TGI,[10],10.1 µM
same,GI50,[11],2.51 µM
same,TGI,[11],9.68 µM
same,GI50,[12],1.74 µM
same,TGI,[12],3.83 µM
same,GI50,[13],1.57 µM
same,TGI,[13],5 µM
same,GI50,[14],3.06 µM
same,TGI,[14],9.72 µM
same,GI50,[15],1.71 µM
same,TGI,[15],4.1 µM
same,GI50,[16],2.28 µM
same,TGI,[16],7.09 µM
same,GI50,[17],2.65 µM
same,TGI,[17],8.11 µM
same,GI50,[18],1.77 µM
same,TGI,[18],9 µM
same,GI50,[19],2.95 µM
same,TGI,[19],14.8 µM
same,GI50,[20],2.71 µM
same,TGI,[20],17.3 µM
same,GI50,[21],2.31 µM
same,TGI,[21],6.76 µM
same,GI50,[22],1.35 µM
same,TGI,[22],2.87 µM
same,GI50,[23],1.44 µM
same,TGI,[23],3.45 µM
same,GI50,[24],2.95 µM
same,TGI,[24],10.1 µM
same,GI50,[25],2.99 µM
same,TGI,[25],11.5 µM
same,GI50,[26],2.08 µM
same,TGI,[26],7.36 µM
same,GI50,[27],1.82 µM
same,TGI,[27],3.91 µM
same,GI50,[28],1.94 µM
same,TGI,[28],4.79 µM
same,GI50,[29],2.65 µM
same,TGI,[29],13.1 µM
same,GI50,[30],3.01 µM
same,TGI,[30],10.1 µM
same,GI50,[31],1.85 µM
same,TGI,[31],10.2 µM
same,GI50,[32],1.69 µM
same,TGI,[32],3.5 µM
same,GI50,[33],2.21 µM
same,TGI,[33],5.12 µM
same,GI50,[34],1.32 µM
same,TGI,[34],2.85 µM
same,GI50,[35],1.32 µM
same,TGI,[35],4.08 µM
same,GI50,[36],1.41 µM
same,TGI,[36],3.57 µM
same,GI50,[37],3.97 µM
same,TGI,[37],13 µM
same,GI50,[38],2.05 µM
same,TGI,[38],5.93 µM
same,GI50,[39],2.34 µM
same,TGI,[39],6.87 µM
same,GI50,[40],1.76 µM
same,TGI,[40],4.11 µM
same,GI50,[41],2.19 µM
same,TGI,[41],5.43 µM
same,GI50,[42],2 µM
same,TGI,[42],6.42 µM
same,GI50,[43],1.72 µM
same,TGI,[43],5.45 µM
same,GI50,[44],2.46 µM
same,TGI,[44],6 µM
same,GI50,[45],2.72 µM
same,TGI,[45],9.11 µM
same,GI50,[46],2.09 µM
same,TGI,[46],4.52 µM
same,GI50,[47],2.52 µM
same,TGI,[47],10.2 µM
same,GI50,[48],2.46 µM
same,TGI,[48],7.54 µM
same,GI50,[49],3 µM
same,TGI,[49],11.8 µM
same,GI50,[50],2.38 µM
same,TGI,[50],9.14 µM
same,GI50,[51],1.68 µM
same,TGI,[51],3.21 µM
same,GI50,[52],2.03 µM
same,TGI,[52],6.94 µM
same,GI50,[53],1.5 µM
same,TGI,[53],4.04 µM
same,GI50,[54],3.31 µM
same,TGI,[54],11.3 µM
same,GI50,[55],3.16 µM
same,TGI,[55],9.57 µM
same,GI50,[56],0.6 µM
same,TGI,[56],3.27 µM
same,GI50,[57],1.84 µM
same,TGI,[57],4.41 µM
same,GI50,[58],3.05 µM
same,TGI,[58],11.7 µM
same,GI50,[59],2.29 µM
same,TGI,[59],8.79 µM
